Reference: patent US9504674B2, “TrkB agonists and methods of use” (EMORY UNIVERSITY, priority 2010, dated 2016)
Values joined by “and” are separate entries in the source; they are usually repeats but may differ in a detail not shown here. Equal values may be shown once. “Also recorded” adds a separate entry of the source.

Experiments:
TrkB [1] = biological target: T1, TrkB (Mus musculus, UniProt P15209); experiment: TrkB activation in mouse brain after single oral administration (immunoblotting); format: in vivo; conditions: 1 mg/kg oral, C57BL/6J mice
T1 construct: from tissue; host or cells: brain of wild-type C57BL/6J mice
Protocol: Rat primary neurons were treated with 500 nM. 4′-DMA-7,8-DHF from various time points. The neuronal lysates were analyzed with various antibodies. 4′-DMA-7,8-DHF rapidly activated TrkB and its downstream signaling cascades (left panels). […] One mg/kg of 4′-DMA-7,8-DHF and 7,8-DHF were orally administrated into C57 BL/6J mice and TrkB phosphorylation and its downstream signaling cascades including Akt and MAPK in mouse brain were analyzed by immunoblotting at various time points. TrkB activation by 4′-DMA-7,8-DHF peaked at 4 h, whereas the maximal TrkB activation by 7,8-DHF in mouse brain occurred at 1-2 h (middle panels).
(§1) 1 mg/kg of various compounds were orally administrated into C57 BL/6J mice and TrkB phosphorylation and its downstream signaling cascades including Akt and MAPK in mouse brain were analyzed by immunoblotting at 2 h.
Time course assay with compound i and m in mouse brain. 1 mg/kg of compound i and m were orally administrated into C57 BL/6J mice and TrkB phosphorylation and its downstream signaling cascades including Akt and MAPK in mouse brain were analyzed by immunoblotting at various time points.
To compare the TrkB activation by these synthetic compounds, primary cortical cultures were prepared. Cortical neurons were treated with 500 nM of various compounds for 20 min and cell lysates were collected. […] Replacing the H-bond acceptor O atom with hydrogen bond donor NH abolishes its stimulatory effect. […] On the other hand, 7,8-DHF provoked TrkB activation with the minimal concentration of 100 nM (FIG. 2B, right panels). To further study 4′-DMA-7,8-DHF's kinetics on TrkB activation, primary neurons were treated for various time points. 4′-DMA-7,8-DHF swiftly activated TrkB as soon as 5 minutes following treatment. […] To compare the stimulatory effect on TrkB receptor in mouse brains, 1 mg/kg of the synthesized derivatives were injected into C57BL/6J mice. TrkB activation was monitored at different time points.
(§2) The compounds were orally injected (1 mg/kg) into C57BL/6J mice. The TrkB and its downstream signaling cascades activation at 2 h were examined after drug administration with mouse brain tissues. […] The downstream p-Akt and p-MAPK tightly coupled to p-TrkB signals.

Akt and MAPK = experiment: Downstream p-Akt / p-MAPK signaling in mouse brain after oral administration (immunoblotting, p-Akt ELISA); format: in vivo; conditions: 1 mg/kg oral; for Akt and MAPK activation (TrkB signaling) in mouse brain at 2 h: C57BL/6J mice, p-Akt 473 and p-MAPK immunoblotting
Protocol: The data were from two sets of replicated experiments.
as §1
The brain lysates were prepared and analyzed with p-Akt ELISA kit.
as §2

active caspase-3 = experiment: Active caspase-3 ELISA in glutamate-treated cortical neurons; format: cell-based, rat; conditions: 30 min pretreatment, then glutamate 16 h; for caspase-3 activation after glutamate: 50 nM or higher
Protocol: 4′-Dimethylamino-7,8-dihydroxyflavone prevents neurons from apoptosis in a TrkB-dependent manner. Cortical neurons were prepared from E16 rat embryonic. The neurons were pretreated with different doses of compounds as indicated for 30 min, followed by 50 μM glutamate for 16 h. The cell lysates were analyzed by active caspase-3 ELISA.
To quantitatively compare the anti-apoptotic activity by these two TrkB agonists, cortical neurons were pretreated with various concentrations of 4′-DMA-7,8-DHF and 7,8-DHF for 30 min, followed by […] for 16 h. Cell lysates were quantitatively analyzed with an active caspse-3 ELISA. […] To investigate whether these compounds exert any neuroprotective effects in animals, both compounds (5 mg/kg) were orally injected into mice. At 0, 2 h or 6 h, kainic acid (KA)(20 mg/kg) was administered intraperitoneally. At 2 h, mice were sacrificed and hippocampal regions were prepared. […] This kinetic spectrum tightly coupled to the TrkB activation status observed when treated with 7,8-DHF (FIG. 3C, right panel).

TrkB [2] = biological target: T1, TrkB; experiment: TrkB activation in brain of chronically treated mice (immunoblotting p-TrkB 817, immunohistochemistry p-TrkB Y816); format: in vivo; conditions: for TrkB activation in mouse brain after chronic treatment: 5 mg/kg oral 21 days, brain lysates, immunoblotting p-TrkB 817; for TrkB activation in the dentate gyrus: 5 mg/kg oral, after 21 days treatment, immunohistochemistry
Protocol: Paraffin section were deparaffinized in xylene and rehydrated gradient ethanol solution. Samples were boiled in 10 mM sodium citrate buffer for 20 min for antigen retrieval purpose. Brain sections were incubated with anti-TrkB (BD biosciences, San Jose, Calif.) 1:50, and anti-p-TrkB Y816 was used at 1:300 dilution. Secondary antibody were applied using antirabbit-Alexa 594 (red), antimouse-FITC (green). DAPI (blue) was used for nuclear staining.
The brain lysates from above chronically treated mice were analyzed by immunoblotting with anti-p-TrkA 794 and p-TrkB 817.
Brain tissues were fixed in 4% paraformaldehyde overnight followed by paraffin embedding. Sections of […] were cut. For immunohistochemical staining, brain sections were deparaffinized in xylene and rehydrated in graded alcohols. Endogenous peroxidase activity was blocked by 3% hydrogen peroxide for 5 minutes and all slides were boiled in 10 mM sodium citrate buffer (pH 6.0) for 10 minutes. Phosphorylated Trk B816 and Trk B were detected using specific antibodies. Paraffin section were deparaffinized in xylene and rehydrated gradient ethanol solution. Samples were boiled in 10 mM sodium citrate buffer for 20 min for antigen retrieval purpose. Brain sections were incubated with anti-TrkB (BD biosciences, San Jose, Calif.) 1:50, p-TrkB 1:300 dilution. Secondary antibodies were applied using anti-rabbit-Alexa 594 (red), anti-mouse-FITC (green). DAPI (blue) was used for nuclear staining
Administration of chronic, but not acute, monoamine antidepressant drugs enhances adult neurogenesis in dentate gyrus of rodents and non-human primates, while blocking neurogenesis by irradiation attenuates the behavioral antidepressant-like effects of these drugs in some rodent strains. […] Ablation of TrkB specifically in hippocampal neural progenitor cells prevents chronic antidepressant-induced neurogenesis and renders the mice behaviorally non-responsive to chronic antidepressant treatment. To test whether increasing TrkB activation by these small agonists would elevate the neurogenesis, adult male C57BL/6J mice were orally injected with either vehicle, 7,8-DHF, or 4′-DMA-7,8-DHF (5 mg/kg) for 21 days. At the end of treatment (day 21), animals were injected with BrdU (50 mg/kg, intraperitoneally) to label dividing cells and were sacrificed 2 h later. BrdU immunohistochemistry was used to assess progenitor proliferation (FIG. 4A). […] Therefore, chronic treatment with TrkB agonists promotes neurogenesis in the hippocampus of mice.
Accumulating evidence supports that BDNF plays a role in mediating therapeutic effects of antidepressants. Infusion of exogenous BDNF into hippocampus or brain stem has anti-depressant-like behavioral effect. A forced swim test is broadly used for screening of potential antidepressant drugs and is widely used to measure antidepressant activity. To explore whether 4′-DMA-7,8-DHF and 7,8-DHF have any antidepressant effect like BDNF, a forced swim test was conducted after chronic treatment of the mice for 21 days via oral injection.
BDNF/TrkB signaling plays an role in mediating antidepressants' therapeutic effects. A forced swim test is broadly used for screening of potential antidepressant drugs and is widely used to measure antidepressant activity. To explore whether imidazole flavanoid and compound i have any antidepressant effect like BDNF, a forced swim test was conducted after chronic treatment of the mice for 21 days via oral administration.

T1 sequence (P15209 32-821): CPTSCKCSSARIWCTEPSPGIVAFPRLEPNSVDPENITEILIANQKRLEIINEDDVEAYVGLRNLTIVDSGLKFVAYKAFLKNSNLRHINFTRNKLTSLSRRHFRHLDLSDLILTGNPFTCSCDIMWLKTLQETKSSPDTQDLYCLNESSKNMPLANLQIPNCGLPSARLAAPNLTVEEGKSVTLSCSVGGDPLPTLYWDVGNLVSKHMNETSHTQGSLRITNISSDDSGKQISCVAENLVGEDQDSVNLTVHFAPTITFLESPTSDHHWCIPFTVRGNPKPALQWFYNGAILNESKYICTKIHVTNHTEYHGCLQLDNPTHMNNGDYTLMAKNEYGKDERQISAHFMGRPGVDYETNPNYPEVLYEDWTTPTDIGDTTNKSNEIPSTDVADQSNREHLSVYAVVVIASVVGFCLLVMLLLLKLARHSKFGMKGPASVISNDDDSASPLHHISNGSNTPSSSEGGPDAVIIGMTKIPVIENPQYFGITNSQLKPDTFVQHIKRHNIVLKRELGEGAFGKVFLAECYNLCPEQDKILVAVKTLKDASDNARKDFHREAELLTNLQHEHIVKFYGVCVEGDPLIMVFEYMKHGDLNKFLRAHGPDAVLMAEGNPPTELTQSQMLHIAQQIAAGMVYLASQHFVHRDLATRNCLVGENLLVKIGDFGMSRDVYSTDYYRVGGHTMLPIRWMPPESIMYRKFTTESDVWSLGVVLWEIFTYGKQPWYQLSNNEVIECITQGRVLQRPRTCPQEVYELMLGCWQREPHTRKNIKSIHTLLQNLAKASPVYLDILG

SMILES | duration of TrkB agonistic effect in animals compared with 7,8-DHF (TrkB [1]) | time of onset of TrkB activation in mouse brain (TrkB [1]) | time of peak TrkB activation in mouse brain (TrkB [1]) | TrkB phosphorylation in mouse brain at 2 h (TrkB [1]) | TrkB activity in mouse brain at 16 h (TrkB [1]) | Akt and MAPK activation (TrkB signaling) in mouse brain at 2 h (Akt and MAPK) | inhibition of caspase-3 activation after glutamate (active caspase-3; 10 nM) | caspase-3 activation after glutamate (active caspase-3) | TrkB activation in mouse brain after chronic treatment (TrkB [2]) | TrkB activation in the dentate gyrus (TrkB [2]) | TrkB activation in mouse brain, time course, compared with compound i (TrkB [1]; various time points) | Akt activation in mouse brain (p-Akt ELISA), compared with compound i (Akt and MAPK; brain lysates, time course) | TrkB activation in mouse brain after chronic treatment (TrkB [2]; listed as imidazole flavanoid) | TrkB activation in mouse brain after chronic treatment (TrkB [2]; listed as imidazole-derivative)
CN(C)c1ccc(-c2cc(=O)c3ccc(O)c(O)c3o2)cc1 [4′-DMA-7,8-DHF, 4′-dimethylamino-7,8-dihydroxyflavone] | sustained longer in animals; also recorded: longer period of TrkB activation in mouse brain | 1 h | 8 h and 4 h | exhibited the strongest TrkB phosphorylation | partially decayed at 16 h | potently activated TrkB signaling in mouse brain | more robust inhibitory effect than 7,8-DHF | substantially blocked caspase-3 activation | evidently provoked TrkB | markedly activated | – | – | – | –
O=c1cc(-c2ccccc2)oc2c(O)c(O)ccc12 [7,8-DHF, 7,8-dihydroxyflavone, reference compound] | – | approximately 2 h | – | – | Elevated TrkB activity was demonstrable even at 16 h | – | – | substantially blocked caspase-3 activation | evidently provoked TrkB | markedly activated | – | – | – | –
CN(C)c1ccc(-c2cc(=O)c3ccc4nc[nH]c4c3o2)cc1 [compound m, 8-(4-(dimethylamino)phenyl)chromeno[7,8-d]imidazol-6(1H)-one] | – | – | – | exhibited the strongest TrkB phosphorylation | – | potently activated TrkB signaling in mouse brain | – | – | – | – | more robust and sustained TrkB activation than compound i | more robust and sustained Akt activation than compound i | evidently provoked TrkB | stronger activity than compound i
